These compounds were tested on HCV genotype 1a replicon (assay: HCV genotype 1a replicon assay (NS3 protease activity readout)). Settings: HCV genotype 1a replicon.
Type: cell-based, hepatitis C virus
Procedure, shortened: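 EC50 values came from a 4-parameter robust fit of fluorescence (ex 340, em 509 nm) produced by NS3-specific protease in lysates, assayed with 15 μM FRET substrate for 20 min at 37° C, after 48 or 72 hours of compound exposure (0.5% DMSO) of Huh7.5-derived APC89 genotype 1a replicon cells.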

SMILES	Genotype 1a
COC(=O)N[C@H](C(=O)N1C[C@@H](C)C[C@H]1c1nc(-c2ccc(-c3cc(Cl)c(NC(=O)c4ccc(N5CCN(C(=O)[C@H]6CCCN6S(C)(=O)=O)C[C@H]5C)nc4)cc3OC(F)(F)F)cc2)c[nH]1)C(C)C [Example 1-39]	D (D represents pEC50>10 (EC50<0.1 nM))
COC(=O)N[C@H](C(=O)N1C[C@@H](C)C[C@H]1c1nc(-c2ccc(-c3cc(Cl)c(NC(=O)c4ccc(N5CCN(C(=O)[C@H]6CCCN6C(C)=O)C[C@H]5C)nc4)cc3OC(F)(F)F)cc2)c[nH]1)C(C)C [Example 1-47]	D (D represents pEC50>10 (EC50<0.1 nM))
COC(=O)N[C@H](C(=O)N1C[C@@H](C)C[C@H]1c1nc(-c2ccc(-c3cc(Cl)c(NC(=O)c4ccc(N5CCN(C(=O)C6(C)CC6)C[C@H]5C)nc4)cc3OC(F)(F)F)cc2)c[nH]1)C(C)C [Example 1-80]	C (C represents pEC50 between and 9 and about 10, (EC50 between 1 nM and 0.1 nM))
COC(=O)N[C@H](C(=O)N1C[C@@H](OC)C[C@H]1c1nc(-c2ccc(-c3ccc(C(=O)Nc4ccc(N5CCN(C(=O)[C@H]6CC6(C)C)C[C@H]5C)nc4)cc3)cc2)c[nH]1)C1CCOCC1 [Example 22-15]	D (D represents pEC50>10 (EC50<0.1 nM))
COC(=O)N[C@H](C(=O)N1C[C@@H](C)C[C@H]1c1nc(-c2ccc(-c3cc(F)c(NC(=O)c4ccc(N5CCN(C(=O)C(C)(C)C)C[C@H]5C)nc4)cc3C(F)(F)F)cc2)c[nH]1)C(C)C [Example 1-58]	D (D represents pEC50>10 (EC50<0.1 nM))
COC(=O)NC(C(=O)N1CC(OC)CC1c1nc(-c2ccc(-c3ccc(NC(=O)c4ccc(N5CCN(C(=O)C(C)(C)C)CC5C)nc4)cc3OC(F)(F)F)cc2)c[nH]1)C(C)OC (centres unmarked) [Example 16-11]	D (D represents pEC50>10 (EC50<0.1 nM))
COC(=O)N[C@H](C(=O)N1C[C@@H](C)C[C@H]1c1nc(-c2ccc(-c3ccc(C(=O)Nc4ccc(N5C[C@H](C)N(C(=O)C6CC6(Cl)Cl)C[C@H]5C)nc4)cc3OC(F)(F)F)cc2)c[nH]1)C(C)C (some centres unmarked) [Example 4-23]	C (C represents pEC50 between and 9 and about 10, (EC50 between 1 nM and 0.1 nM))
COC(=O)N[C@H](C(=O)N1C[C@@H](C)C[C@H]1c1nc(-c2ccc(-c3cc(Cl)c(NC(=O)c4ccc(N5CCN(C(=O)CC6CC6)C[C@H]5C)nc4)cc3OC(F)(F)F)cc2)c[nH]1)C(C)C [Example 1-98]	C (C represents pEC50 between and 9 and about 10, (EC50 between 1 nM and 0.1 nM))
COC(=O)NC(C(=O)N1CC(OC)CC1c1nc(-c2ccc(-c3ccc(NC(=O)c4ccc(N5CCN(C(=O)C(C)(C)C)CC5C)nc4)cc3OC(F)(F)F)cc2)c[nH]1)C(C)(C)O (centres unmarked) [Example 16-18]	D (D represents pEC50>10 (EC50<0.1 nM))
COC(=O)N[C@H](C(=O)N1C[C@@H](C)C[C@H]1c1nc(-c2ccc(-c3cc(Cl)c(NC(=O)c4ccc(N5CCN(C(=O)NN(C)C)C[C@H]5C)nc4)cc3OC(F)(F)F)cc2)c[nH]1)C(C)C [Example 1-94]	D (D represents pEC50>10 (EC50<0.1 nM))
COC(=O)N[C@H](C(=O)N1C[C@@H](N(C)C)C[C@H]1c1nc(-c2ccc(-c3cc(Cl)c(NC(=O)c4ccc(N5CCN(C(=O)[C@H]6CC6(C)C)C[C@H]5C)nc4)cc3OC(F)(F)F)cc2)c(Cl)[nH]1)C(C)C [Example 2-8]	D (D represents pEC50>10 (EC50<0.1 nM))
COC(=O)N[C@H](C(=O)N1C[C@@H](C)C[C@H]1c1nc(-c2ccc(-c3ccc(C(=O)Nc4ccc(N5C[C@H](C)N(C(=O)C6CC6C)C[C@H]5C)nc4)cc3OC(F)(F)F)cc2)c(Cl)[nH]1)C(C)C (some centres unmarked) [Example 4-13]	C (C represents pEC50 between and 9 and about 10, (EC50 between 1 nM and 0.1 nM))
COC(=O)N[C@H](C(=O)N1C[C@@H](C)C[C@H]1c1nc(-c2ccc(-c3cc(F)c(NC(=O)c4ccc(N5CCN(C(=O)C6CC67CC7)C[C@H]5C)nc4)cc3F)cc2)c[nH]1)C(C)C (some centres unmarked) [Example 1-90]	C (C represents pEC50 between and 9 and about 10, (EC50 between 1 nM and 0.1 nM))
COC(=O)N[C@H](C(=O)N1C[C@@H](C)C[C@H]1c1nc(-c2ccc(-c3ccc(C(=O)Nc4ccc(N5CCN(C(=O)C6CC6(Cl)Cl)C[C@H]5C)nc4)cc3OC(F)(F)F)cc2)c(Cl)[nH]1)C(C)C (some centres unmarked) [Example 4-30]	C (C represents pEC50 between and 9 and about 10, (EC50 between 1 nM and 0.1 nM))
COC(=O)N[C@H](C(=O)N1C[C@@H](C)C[C@H]1c1nc(-c2ccc(-c3cc(Cl)c(NC(=O)c4ccc(N5CCN(C(=O)[C@H]6CCCN6C(=O)C(C)C)C[C@H]5C)nc4)cc3OC(F)(F)F)cc2)c[nH]1)C(C)C [Example 1-49]	D (D represents pEC50>10 (EC50<0.1 nM))
COC[C@H]1C[C@@H](c2nc(-c3ccc(-c4ccc(C(=O)Nc5ccc(N6CCN(C(=O)C(C)(C)C)C[C@H]6C)nc5)c(Cl)c4OC(F)(F)F)cc3)c[nH]2)N(C(=O)[C@@H](NC(=O)OC)C(C)C)C1 [Example 25-7]	B (B represents pEC50 between 8 and 9 (EC50 between 1 and 10 nM))
COC(=O)NC(C(=O)N1CC(OC)CC1c1nc(-c2ccc(-c3ccc(NC(=O)c4ccc(N5CCN(C(=O)C(C)(C)CO)CC5C)nc4)cc3OC(F)(F)F)cc2)c[nH]1)C(C)OC (centres unmarked) [Example 16-16]	D (D represents pEC50>10 (EC50<0.1 nM))
COC(=O)N[C@H](C(=O)N1C[C@@H](C)C[C@H]1c1nc(-c2ccc(-c3cc(Cl)c(NC(=O)c4ccc(N5CCN(C(=O)[C@H]6CCCN6C(=O)OC)C[C@H]5C)nc4)cc3OC(F)(F)F)cc2)c[nH]1)C(C)C [Example 1-37]	D (D represents pEC50>10 (EC50<0.1 nM))
COC(=O)N[C@H](C(=O)N1C[C@@H](C)C[C@H]1c1nc(-c2ccc(-c3cc(Cl)c(NC(=O)c4ccc(N5CCN(C(=O)c6cn(C)cn6)C[C@H]5C)nc4)cc3OC(F)(F)F)cc2)c[nH]1)C(C)C [Example 1-33]	C (C represents pEC50 between and 9 and about 10, (EC50 between 1 nM and 0.1 nM))
CNC(=O)N1CCC[C@@H]1C(=O)N1CCN(c2ccc(C(=O)Nc3cc(OC(F)(F)F)c(-c4ccc(-c5c[nH]c([C@@H]6C[C@H](C)CN6C(=O)[C@@H](NC(=O)OC)C(C)C)n5)cc4)cc3Cl)cn2)[C@H](C)C1 [Example 1-38]	D (D represents pEC50>10 (EC50<0.1 nM))
COC(=O)N[C@H](C(=O)N1C[C@@H](OC)C[C@H]1c1nc(-c2ccc(-c3ccc(NC(=O)c4ccc(N5CCN(C(=O)C(C)(C)CO)C[C@H]5C)nc4)cc3OC(F)(F)F)cc2)c[nH]1)C1CCOCC1 [Example 28-4]	D (D represents pEC50>10 (EC50<0.1 nM))
COC(=O)N[C@H](C(=O)N1C[C@@H](C)C[C@H]1c1nc(-c2ccc(-c3ccc(C(=O)Nc4ccc(N5CCN(C(=O)[C@H]6CC6(C)C)C[C@H]5C)nc4)cc3OC(F)(F)F)cc2)c(Cl)[nH]1)C(C)C [Example 4-29]	D (D represents pEC50>10 (EC50<0.1 nM))
COC(=O)N[C@H](C(=O)N1C[C@@H](O)C[C@H]1c1nc(-c2ccc(-c3cc(Cl)c(NC(=O)c4ccc(N5CCN(C(=O)C(C)(C)C)C[C@H]5C)nc4)cc3OC(F)(F)F)cc2)c[nH]1)C1CCOCC1 [Example 26-10]	A (A represents a pEC50 value between 6 and 8 (EC50 between 1 μM and 10 nM))
COC(=O)N[C@H](C(=O)N1C[C@@H](C)C[C@H]1c1nc(-c2ccc(-c3cc(F)c(NC(=O)c4ccc(N5CCN(C(=O)[C@H]6CC6(C)C)C[C@H]5C)nc4)cc3Cl)cc2)c[nH]1)C(C)C [Example 1-76]	D (D represents pEC50>10 (EC50<0.1 nM))

Same assay, conditions: Hepatitis C virus, read-out: Genotype 1a, HCV genotype 1a replicon

SMILES	EC50 [nM]
COC(=O)N[C@H](C(=O)N1C[C@@H](C)C[C@H]1c1nc(-c2ccc(-c3cc(F)c(NC(=O)c4ccc(N5CCN(C(=O)C(C)(C)CO)C[C@H]5C)nc4)cc3OC(F)(F)F)cc2)c[nH]1)C(C)(C)O [Example 13-23]	< 0.1
COCC(=O)N1CCC[C@@]1(C)C(=O)N1CCN(c2ccc(C(=O)Nc3ccc(-c4ccc(-c5c[nH]c([C@@H]6CC7(CN6C(=O)[C@@H](NC(=O)OC)C(C)C)OCCO7)n5)cc4)c(OC(F)(F)F)c3)cn2)[C@H](C)C1 [Example 5-2]	< 0.1
COC(=O)N[C@H](C(=O)N1C[C@@H](C(N)=O)C[C@H]1c1nc(-c2ccc(-c3cc(Cl)c(NC(=O)c4ccc(N5CCN(C(=O)OC(C)(C)C)C[C@H]5C)nc4)cc3OC(F)(F)F)cc2)c[nH]1)C(C)C [Example 15-10]	1 to 10
COC(=O)NC(C(=O)N1C[C@@H](C)C[C@H]1c1nc(-c2ccc(-c3cc(Cl)c(NC(=O)c4ccc(N5CCN(C(=O)C(C)(C)C)C[C@H]5C)nc4)cc3OC(F)(F)F)cc2)c[nH]1)C1COC1 (some centres unmarked) [Example 13-44]	0.1 to 1
COC(=O)N[C@H](C(=O)N1C[C@@H](C)C[C@H]1c1nc(-c2ccc(-c3cc(Cl)c(NC(=O)c4ccc(N5CCN(C(=O)C6(C)COC6)C[C@H]5C)nc4)cc3OC(F)(F)F)cc2)c[nH]1)C(C)C [Example 12-48]	< 0.1
COC(=O)N[C@H](C(=O)N1C[C@@H](SC)C[C@H]1c1nc(-c2ccc(-c3ccc(C(=O)Nc4ccc(N5CCN(C(=O)C(C)(C)C)C[C@H]5C)nc4)cc3OC(F)(F)F)cc2)c[nH]1)C(C)C [Example 6-15]	0.1 to 1
COC(=O)N[C@H](C(=O)N1[C@@H]2C[C@@H]2C[C@H]1c1nc(-c2ccc(-c3ccc(C(=O)Nc4ccc(N5CCN(C(=O)C(C)(C)C)C[C@H]5C)nc4)cc3OC(F)(F)F)cc2)c(Cl)[nH]1)C(C)C [Example 9-1]	0.1 to 1
COC(=O)N[C@H](C(=O)N1C[C@@H](C)C[C@H]1c1nc(-c2ccc(-c3cc(Cl)c(NC(=O)c4ccc(N5CCN(C(=O)C(C)(C)C)C[C@H]5C)nc4)c(Cl)c3OC(F)(F)F)cc2)c[nH]1)C(C)C [Example 5-14]	0.1 to 1
COC(=O)N[C@H](C(=O)N1C[C@@H](N(C)C(C)C)C[C@H]1c1nc(-c2ccc(-c3cc(Cl)c(NC(=O)c4ccc(N5CCN(C(=O)C(C)(C)C)C[C@H]5C)nc4)cc3OC(F)(F)F)cc2)c[nH]1)C(C)C [Example 15-7]	< 0.1
COCCO[C@H]1C[C@@H](c2nc(-c3ccc(-c4cc(Cl)c(NC(=O)c5ccc(N6CCN(C(=O)C(C)(C)C)C[C@H]6C)nc5)cc4OC(F)(F)F)cc3)c[nH]2)N(C(=O)[C@@H](NC(=O)OC)C(C)C)C1 [Example 15-1]	0.1 to 1
COC(=O)N[C@H](C(=O)N1CC(C)(C)C[C@H]1c1nc(-c2ccc(-c3ccc(C(=O)Nc4ccc(N5CCN(C(=O)C(C)(C)C)C[C@H]5C)nc4)cc3OC(F)(F)F)cc2)c[nH]1)C(C)C [Example 6-23]	1 to 10

From patent US9212168B2 (priority 2011, dated 2015)
